According to patent US10251395B2, “Substituted furano-/thienocycloalkylamino-2-pyrimidine derivatives and use thereof for controlling undesired plant growth” (Bayer CropScience Aktiengesellschaft, priority 2015, dated 2019):

What was measured:
Polygonum convolvulus [1] = test: Pre-emergence herbicidal effect; format: in vivo; details: Dosage 320 g/ha, scored visually after 3 weeks
In short: (§1)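 Seeds sown in sandy loam in wood-fiber pots and covered with soil; WP or EC formulations applied to the soil surface as aqueous suspension or emulsion at 600 to 800 L/ha water with 0.2% wetting agent. Greenhouse, 3 weeks; damage scored visually versus untreated controls (100% = plants died, 0% = like control).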

Stellaria media [2] = test: Pre-emergence herbicidal effect; format: in vivo; details: scored visually after 3 weeks
In short: as §1

Abutilon theophrasti [3] = test: Pre-emergence herbicidal effect; format: in vivo; details: Dosage 320 g/ha, scored visually after 3 weeks
In short: as §1

Matricaria inodora [4] = test: Pre-emergence herbicidal effect; format: in vivo; details: scored visually after 3 weeks
In short: as §1

Veronica persica [5] = test: Pre-emergence herbicidal effect; format: in vivo; details: scored visually after 3 weeks
In short: as §1

Amaranthus retroflexus [6] = test: Pre-emergence herbicidal effect; format: in vivo; details: scored visually after 3 weeks
In short: as §1

Viola tricolor [7] = test: Pre-emergence herbicidal effect; format: in vivo; details: scored visually after 3 weeks
In short: as §1

Setaria viridis [8] = test: Pre-emergence herbicidal effect; format: in vivo; details: scored visually after 3 weeks
In short: as §1

Echinochloa crus-galli [9] = test: Pre-emergence herbicidal effect; format: in vivo; details: scored visually after 3 weeks
In short: as §1

Stellaria media [10] = test: Post-emergence herbicidal effect; format: in vivo; details: assessed visually after about 3 weeks vs untreated controls
In short: (§2)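 Action, expressed in percent from 0 (like controls) to 100 (plants died), is read by eye about 3 weeks after foliar application. Applications use formulated product in water at 600–800 L/ha on one-leaf-stage plants sown in sandy loam.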

Ipomoea purpurea = test: Post-emergence herbicidal effect; format: in vivo; details: 320 g/ha, assessed visually after about 3 weeks vs untreated controls
In short: as §2

Veronica persica [11] = test: Post-emergence herbicidal effect; format: in vivo; details: assessed visually after about 3 weeks vs untreated controls
In short: as §2

Amaranthus retroflexus [12] = test: Post-emergence herbicidal effect; format: in vivo; details: assessed visually after about 3 weeks vs untreated controls
In short: as §2

Viola tricolor [13] = test: Post-emergence herbicidal effect; format: in vivo; details: assessed visually after about 3 weeks vs untreated controls
In short: as §2

Echinochloa crus-galli [14] = test: Post-emergence herbicidal effect; format: in vivo; details: assessed visually after about 3 weeks vs untreated controls
In short: as §2

logP (HCOOH) = format: physicochemical; details: HCOOH
Excerpt: Table 2 (physicochemical characterization of selected synthesis examples)

Lolium multiflorum [15] = test: Pre-emergence herbicidal effect; format: in vivo; details: scored visually after 3 weeks
In short: as §1

Alopecurus myosuroides = test: Pre-emergence herbicidal effect; format: in vivo; details: scored visually after 3 weeks
In short: as §1

Abutilon theophrasti [16] = test: Post-emergence herbicidal effect; format: in vivo; details: assessed visually after about 3 weeks vs untreated controls
In short: as §2

Matricaria inodora [17] = test: Post-emergence herbicidal effect; format: in vivo; details: assessed visually after about 3 weeks vs untreated controls
In short: as §2

Lolium multiflorum [18] = test: Post-emergence herbicidal effect; format: in vivo; details: 320 g/ha, assessed visually after about 3 weeks vs untreated controls
In short: as §2

Setaria viridis [19] = test: Post-emergence herbicidal effect; format: in vivo; details: 320 g/ha, assessed visually after about 3 weeks vs untreated controls
In short: as §2

Polygonum convolvulus [20] = test: Post-emergence herbicidal effect; format: in vivo; details: assessed visually after about 3 weeks vs untreated controls
In short: as §2

| Compound | POLCO pre-emergence efficacy (herbicidal activity) (Polygonum convolvulus [1]) [%] | STEME pre-emergence efficacy (herbicidal activity) (Stellaria media [2]; Dosage 80 g/ha) [%] | STEME pre-emergence efficacy (herbicidal activity) (Stellaria media [2]; Dosage 320 g/ha) [%] | ABUTH pre-emergence efficacy (herbicidal activity) (Abutilon theophrasti [3]) [%] | MATIN pre-emergence efficacy (herbicidal activity) (Matricaria inodora [4]; Dosage 80 g/ha) [%] | MATIN pre-emergence efficacy (herbicidal activity) (Matricaria inodora [4]; Dosage 320 g/ha) [%] | VERPE pre-emergence efficacy (herbicidal activity) (Veronica persica [5]; Dosage 80 g/ha) [%] | VERPE pre-emergence efficacy (herbicidal activity) (Veronica persica [5]; Dosage 320 g/ha) [%] | AMARE pre-emergence efficacy (herbicidal activity) (Amaranthus retroflexus [6]; Dosage 80 g/ha) [%] | AMARE pre-emergence efficacy (herbicidal activity) (Amaranthus retroflexus [6]; Dosage 320 g/ha) [%] | VIOTR pre-emergence efficacy (herbicidal activity) (Viola tricolor [7]; Dosage 80 g/ha) [%] | VIOTR pre-emergence efficacy (herbicidal activity) (Viola tricolor [7]; Dosage 320 g/ha) [%] | SETVI pre-emergence efficacy (herbicidal activity) (Setaria viridis [8]; Dosage 320 g/ha) [%] | ECHCG pre-emergence efficacy (herbicidal activity) (Echinochloa crus-galli [9]; Dosage 80 g/ha) [%] | ECHCG pre-emergence efficacy (herbicidal activity) (Echinochloa crus-galli [9]; Dosage 320 g/ha) [%] | post-emergence efficacy STEME (Stellaria media [10]; 320 g/ha) [%] | post-emergence efficacy AMARE (Amaranthus retroflexus [12]; 320 g/ha) [%] | post-emergence efficacy VIOTR (Viola tricolor [13]; 320 g/ha) [%] | post-emergence efficacy ECHCG (Echinochloa crus-galli [14]; 320 g/ha) [%] | logP (HCOOH) (logP (HCOOH)) | also measured |
| --- | --- | --- | --- | --- | --- | --- | --- | --- | --- | --- | --- | --- | --- | --- | --- | --- | --- | --- | --- | --- | --- |
| CS(=O)(=O)c1cnc(NC2CCCc3sc(Cl)cc32)nc1N (racemic) [compound 42] | 80 | 100 | 100 | 100 | 100 | 100 | 100 | 100 | 100 | 100 | 100 | 100 | 100 | 100 | 100 | 100 | 90 | 100 | 100 | oily; logP (HCOOH): 2.33; 1H NMR (CDCl3, 400 MHZ, δ in ppm): 1.80 (m, 1H, 1H of | SETVI pre-emergence efficacy (herbicidal activity) (Setaria viridis [8]; Dosage 80 g/ha): 100%; post-emergence efficacy STEME (Stellaria media [10]; 80 g/ha): 90%; post-emergence efficacy PHBPU (Ipomoea purpurea): 80%; post-emergence efficacy VERPE (Veronica persica [11]; 80 g/ha): 90%; post-emergence efficacy VERPE (Veronica persica [11]; 320 g/ha): 100%; post-emergence efficacy VIOTR (Viola tricolor [13]; 80 g/ha): 90% |
| CC(=O)c1cnc(NC2CCCc3sc(C)cc32)nc1N (racemic) [compound 150] | 100 | 100 | 100 | 70 |  |  | 70 | 100 | 100 | 100 | 100 | 100 | 100 | 90 | 100 | 100 | 90 | 90 | 80 | oily; logP (HCOOH): 1.51; 1H NMR (CDCl3, 400 MHZ, δ in ppm): 1.85 (m, 3H, 3H of | LOLMU pre-emergence efficacy (herbicidal activity) (Lolium multiflorum [15]; Dosage 80 g/ha): 100%; LOLMU pre-emergence efficacy (herbicidal activity) (Lolium multiflorum [15]; Dosage 320 g/ha): 100%; ALOMY pre-emergence efficacy (herbicidal activity) (Alopecurus myosuroides; Dosage 80 g/ha): 90%; ALOMY pre-emergence efficacy (herbicidal activity) (Alopecurus myosuroides; Dosage 320 g/ha): 100%; SETVI pre-emergence efficacy (herbicidal activity) (Setaria viridis [8]; Dosage 80 g/ha): 100%; post-emergence efficacy STEME (Stellaria media [10]; 80 g/ha): 80%; post-emergence efficacy PHBPU (Ipomoea purpurea): 90%; post-emergence efficacy ABUTH (Abutilon theophrasti [16]; 80 g/ha): 80%; post-emergence efficacy ABUTH (Abutilon theophrasti [16]; 320 g/ha): 80%; post-emergence efficacy MATIN (Matricaria inodora [17]; 80 g/ha): 80%; post-emergence efficacy MATIN (Matricaria inodora [17]; 320 g/ha): 90%; post-emergence efficacy LOLMU (Lolium multiflorum [18]): 90%; post-emergence efficacy VERPE (Veronica persica [11]; 80 g/ha): 100%; post-emergence efficacy VERPE (Veronica persica [11]; 320 g/ha): 100%; post-emergence efficacy AMARE (Amaranthus retroflexus [12]; 80 g/ha): 80%; post-emergence efficacy VIOTR (Viola tricolor [13]; 80 g/ha): 80%; post-emergence efficacy SETVI (Setaria viridis [19]): 90% |
| Cc1cc2c(o1)CCCC2Nc1ncc(S(C)(=O)=O)c(N)n1 (racemic) [compound 62] |  | 90 | 100 | 90 | 80 | 100 |  | 90 |  | 100 | 90 | 100 | 80 |  | 80 | 90 | 90 | 100 | 40 | oily; logP (HCOOH): 1.78; 1H NMR (CDCl3, 400 MHZ, δ in ppm): 1.70-2.00 (m, 4H, | LOLMU pre-emergence efficacy (herbicidal activity) (Lolium multiflorum [15]; Dosage 320 g/ha): 50%; ALOMY pre-emergence efficacy (herbicidal activity) (Alopecurus myosuroides; Dosage 320 g/ha): 60%; post-emergence efficacy LOLMU (Lolium multiflorum [18]): 80%; post-emergence efficacy AMARE (Amaranthus retroflexus [12]; 80 g/ha): 80% |
| CS(=O)(=O)c1cnc(NC2CCCc3cc(Cl)sc32)nc1N (racemic) [compound 53] | 90 | 80 | 100 |  | 100 | 100 | 100 | 100 | 100 | 100 | 100 | 100 | 100 | 100 | 100 | 100 | 100 | 100 | 90 | solid; logP (HCOOH): 2.41; 1H NMR (CDCl3, 400 MHZ, δ in ppm): 1.75-2.00 (m, | post-emergence efficacy POLCO (Polygonum convolvulus [20]; 80 g/ha): 80%; post-emergence efficacy POLCO (Polygonum convolvulus [20]; 320 g/ha): 90%; post-emergence efficacy STEME (Stellaria media [10]; 80 g/ha): 100%; post-emergence efficacy PHBPU (Ipomoea purpurea): 90%; post-emergence efficacy VERPE (Veronica persica [11]; 80 g/ha): 90%; post-emergence efficacy VERPE (Veronica persica [11]; 320 g/ha): 90%; post-emergence efficacy AMARE (Amaranthus retroflexus [12]; 80 g/ha): 90%; post-emergence efficacy VIOTR (Viola tricolor [13]; 80 g/ha): 90%; post-emergence efficacy SETVI (Setaria viridis [19]): 100%; post-emergence efficacy ECHCG (Echinochloa crus-galli [14]; 80 g/ha): 80% |
